According to patent US10308615B2, “Heterocyclic compounds as inhibitors of Vanin-1 enzyme” (Pfizer Inc., priority 2015, dated 2019):
pIC50: −log10 of the molar value.

Tests used:
[1] = molecular target: T1, human vanin-1 (Homo sapiens (Human), UniProt O95497); assay: Human Vanin-1 Enzyme Assay 1; type: biochemical; settings: 25 pM human vanin-1, 50 uM pantetheine 7-amino-4-trifluoromethylcoumarin, 30 min preincubation, 60 min
Description: Human Vanin-1 Enzyme Assay 1.
(§1) The in vitro assay measures enzymatic cleavage of the fluorescently-labeled vanin substrate, pantetheine 7-amino-4-trifluoromethylcoumarin, by human vanin-1.
(§2) The vanin-1 protein was prepared in-house from a construct expressing the extracellular domain of human vanin-1 (GenBank ID NM_004666) preceded N-terminally by the honey bee melittin signal peptide, a GSG linker sequence, a His6X tag and a FLAG tag. The secreted, soluble enzyme was purified from the conditioned medium from a CHO cell line stably expressing the resulting protein. Enzyme purification was performed through sequential Ni NTA and size-exclusion chromatography steps.
The test inhibitors were solubilized in DMSO to a stock concentration of 30 mM. On the day of the assay, dose response plates were prepared by diluting the inhibitors in DMSO at compound concentration 200-fold the final in-assay concentration. Intermediate concentrations were prepared by diluting in DMSO in a four-fold series for a total of 11 data points.
To prepare a working solution of human vanin-1, the enzyme was diluted to 33.3 pM in the assay buffer consisting of 50 mM Tris-HCl pH=8.0, 50 mM KCl, 0.005% Brij-35 and […] cysteamine. To begin the assay 100 nL was transferred from the compound plate to the assay plate. Next, 15 μL of the vanin-1 working solution were transferred to the assay plate. The inhibitor and enzyme were incubated at room temperature for 30 minutes. The enzyme reaction was then initiated by the addition of 5 μL of 200 μM pantetheine 7-amino-4-trifluoromethylcoumarin prepared in assay buffer. The final concentrations in the assay were 25 pM human vanin-1 and 50 uM substrate. The final concentration of DMSO was 0.5%. The assay plates were incubated for 60 minutes and before they were read on a Perkin Elmer EnVision Model 2103 using a 405 nm excitation wavelength and a 510 nm emission wavelength for detection.

[2] = molecular target: T1, human vanin-1; assay: Human Vanin-1 Enzyme Assay 3; type: biochemical; settings: 2 nM human vanin-1, 10 uM substrate, 15 min
Description: Human Vanin-1 Enzyme Assay 3.
as §1, §2
On the day of the assay, dose response plates were prepared by diluting the inhibitors in DMSO at compound concentration 100-fold the final in-assay concentration. Concentration series were prepared by serially diluting in DMSO in a two-fold series for a total of 11 data points. Intermediate compound plates containing compound in 10% DMSO were then created by diluting the compounds 10-fold in assay buffer consisting of 50 mM Tris-HCl pH=8.0, 50 mM KCl, 0.005% Brij-35 and 1.5 mM cysteamine. To begin the assay 3 μL were transferred from the intermediate compound plate to the assay plate.
A working solution of human vanin-1 was prepared by diluting the enzyme stock to 2.5 nM in assay buffer. Next, 24 μL of the vanin-1 working solution were transferred to the assay plate. The enzyme reaction was then initiated by the addition of 3 μL of 100 μM pantetheine 7-amino-4-trifluoromethylcoumarin prepared in 5 uM acetic acid. The final concentrations in the assay were 2 nM human vanin-1 and 10 uM substrate. The final concentration of DMSO was 1%. The assay plates were incubated at room temperature for 15 minutes and before they were read on a Tecan Safire using a 405 nm excitation wavelength and a 505 nm emission wavelength for detection.

T1 sequence (O95497 22-491): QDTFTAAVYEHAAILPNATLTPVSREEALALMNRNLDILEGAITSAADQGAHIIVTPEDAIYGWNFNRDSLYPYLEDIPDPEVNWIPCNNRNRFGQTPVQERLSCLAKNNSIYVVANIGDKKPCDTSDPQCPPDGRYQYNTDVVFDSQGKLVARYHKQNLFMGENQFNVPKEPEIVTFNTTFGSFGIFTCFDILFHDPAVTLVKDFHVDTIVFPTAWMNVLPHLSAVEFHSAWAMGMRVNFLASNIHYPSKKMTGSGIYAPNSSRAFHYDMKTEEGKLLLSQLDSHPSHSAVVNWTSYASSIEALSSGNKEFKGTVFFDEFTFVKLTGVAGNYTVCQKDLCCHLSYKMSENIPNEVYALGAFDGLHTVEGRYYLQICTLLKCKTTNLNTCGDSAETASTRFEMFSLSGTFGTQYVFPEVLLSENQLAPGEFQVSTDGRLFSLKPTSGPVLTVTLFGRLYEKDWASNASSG

Row | pIC50 [1] | pIC50 [2] | Compound
1 | 6.62 | 7.69 | O=C(c1cnc(NCc2ccccc2)nc1)c1cccc(C(F)(F)F)c1 [Example 35, [2-(benzylamino)pyrimidin-5-yl][3-(trifluoromethyl)phenyl]methanone]
2 | 6.33 | 6.18 | Cc1cccc(C(=O)c2cnc(NCc3ccncc3)nc2)c1 [Example 39, (3-methylphenyl){2-[(pyridin-4-ylmethyl)amino]pyrimidin-5-yl}methanone]
3 | 5.37 | 6.09 | COc1ccc(CNc2ncc(C(=O)c3ccc(F)c(F)c3)cn2)cc1 [Example 41, (3,4-difluorophenyl){2-[(4-methoxybenzyl)amino]pyrimidin-5-yl}methanone]
4 | 5.97 | 6.15 | Cc1cccc(C(=O)c2cnc(NCc3ccc(C#N)cc3)nc2)c1 [Example 42, 4-({[5-(3-methylbenzoyl)pyrimidin-2-yl]amino}methyl) benzonitrile]
5 | 5.65 | 6.31 | NC(=O)c1ccc(CNc2ncc(C(=O)c3ccc(F)c(F)c3)cn2)cc1 [Example 43, 4-({[5-(3,4-difluorobenzoyl)pyrimidin-2-yl]amino}methyl) benzamide]
6 | 6.29 | 6.98 | CC(C)(Nc1ncc(C(=O)c2ccc(F)c(F)c2)cn1)c1ccccc1 [Example 44, (3,4-difluorophenyl){2-[(2-phenylpropan-2-yl)amino]pyrimidin-5-yl}methanone]
7 | < 4.70 | < 6.67 | O=C(c1cnc(OCc2ccc(F)cc2)nc1)c1cccc(C(F)(F)F)c1 [Example 46, {2-[(4-fluorobenzyl)oxy]pyrimidin-5-yl}[3-(trifluoromethyl)phenyl]methanone]
8 | < 5.29 | < 6.14 | O=C(c1cnc(OCc2ccc(Cl)cc2)nc1)c1cccc(C(F)(F)F)c1 [Example 47, {2-[(4-chlorobenzyl)oxy]pyrimidin-5-yl}[3-(trifluoromethyl)phenyl]methanone]
9 | 6.82 | < 6.91 | N#Cc1cccc(CNc2ncc(C(=O)c3cccc(C(F)(F)F)c3)cn2)c1 [Example 62, 3-[({5-[3-(trifluoromethyl)benzoyl]pyrimidin-2-yl}amino)methyl] benzonitrile]
10 | 7.00 | 7.13 | N#Cc1cccc(CNc2ncc(C(=O)c3cccc(C#N)c3)cn2)c1 [Example 64, 3-({[5-(3-cyanobenzoyl)pyrimidin-2-yl]amino}methyl) benzonitrile]
11 | 7.53 | 7.33 | NC(=O)c1ccc(CNc2ncc(C(=O)c3cccc(C(F)(F)F)c3)cn2)cn1 [Example 69, 5-[({5-[3-(trifluoromethyl)benzoyl]pyrimidin-2-yl}amino)methyl] pyridine-2-carboxamide]
12 | 6.85 | 7.11 | NC(=O)c1ccc(CNc2ncc(C(=O)c3ccc(F)c(C(F)(F)F)c3)cn2)cn1 [Example 70, 5-[({5-[4-fluoro-3-(trifluoromethyl)benzoyl]pyrimidin-2-yl}amino)methyl] pyridine-2-carboxamide]
13 | < 4.70 | 6.16 | N#Cc1ccc(C(=O)c2cnc(NCc3ccc(F)cc3)nc2)cc1 [Example 78, 4-({2-[(4-fluorobenzyl)amino]pyrimidin-5-yl}carbonyl) benzonitrile]
14 | 4.82 | 6.46 | COc1ccc(CNc2ncc(C(=O)c3ccc(C#N)cc3)cn2)cc1 [Example 79, 4-({2-[(4-methoxybenzyl)amino]pyrimidin-5-yl}carbonyl) benzonitrile]
15 | 6.42 | 7.52 | O=C(c1cnc(NCc2ccccn2)nc1)c1ccc(F)c(C(F)(F)F)c1 [Example 80, [4-fluoro-3-(trifluoromethyl)phenyl]{2-[(pyridin-2-ylmethyl)amino]pyrimidin-5-yl}methanone]
16 | 8.47 | < 7.77 | O=C(c1cnc(NCc2cccnc2)nc1)c1ccc(F)c(C(F)(F)F)c1 [Example 81, [4-fluoro-3-(trifluoromethyl)phenyl]{2-[(pyridin-3-ylmethyl)amino]pyrimidin-5-yl}methanone]
17 | 6.95 | 7.26 | O=C(c1cnc(NCc2ccncc2)nc1)c1ccc(F)c(C(F)(F)F)c1 [Example 82, [4-fluoro-3-(trifluoromethyl)phenyl]{2-[(pyridin-4-ylmethyl)amino]pyrimidin-5-yl}methanone]
18 | 5.98 | 7.07 | O=C(c1cnc(NCc2ccccc2)nc1)c1ccc(F)c(C(F)(F)F)c1 [Example 83, [2-(benzylamino)pyrimidin-5-yl][4-fluoro-3-(trifluoromethyl)phenyl]methanone]
19 | 6.30 | 6.96 | N#Cc1ccc(CNc2ncc(C(=O)c3ccc(F)c(C(F)(F)F)c3)cn2)cc1 [Example 84, 4-[({5-[4-fluoro-3-(trifluoromethyl)benzoyl]pyrimidin-2-yl}amino)methyl] benzonitrile]
20 | 5.95 | 7.28 | O=C(c1cnc(NCc2ccc(F)cc2)nc1)c1ccc(F)c(C(F)(F)F)c1 [Example 85, {2-[(4-fluorobenzyl)amino]pyrimidin-5-yl}[4-fluoro-3-(trifluoromethyl)phenyl]methanone]
21 | 4.83 | 6.12 | O=C(c1cccc(Cl)c1)c1ccc(NCc2ccccc2)nn1 [Example 86, [6-(benzylamino)pyridazin-3-yl](3-chlorophenyl) methanone]
22 | 4.73 | 8.03 | COc1ccc(CNc2ccc(C(=O)c3cccc(C(F)(F)F)c3)nn2)cc1 [Example 88, {6-[(4-methoxybenzyl)amino]pyridazin-3-yl}[3-(trifluoromethyl)phenyl]methanone]
23 | 6.00 | 6.21 | O=C(O)c1ccc(CNc2ncc(C(=O)c3ccc(F)c(C(F)(F)F)c3)cn2)cc1 [Example 89, 4-[({5-[4-fluoro-3-(trifluoromethyl)benzoyl]pyrimidin-2-yl}amino)methyl] benzoic acid]
24 | 5.13 | 7.06 | O=C(c1cccc(C(F)(F)F)c1)c1ccc(NCc2ccccc2)nn1 [Example 90, [6-(benzylamino)pyridazin-3-yl][3-(trifluoromethyl)phenyl]methanone]
25 | < 4.70 | 6.25 | O=C(c1cccc(C(F)(F)F)c1)c1ccc(NCc2ccc(F)cc2F)nn1 [Example 92, {6-[(2,4-difluorobenzyl)amino]pyridazin-3-yl}[3-(trifluoromethyl)phenyl]methanone]
26 | 5.67 | 6.81 | O=C(c1cnc(NCc2ccccc2)nc1)c1cc(F)cc(C(F)(F)F)c1 [Example 93, [2-(benzylamino)pyrimidin-5-yl][3-fluoro-5-(trifluoromethyl)phenyl]methanone]
27 | 5.66 | 6.01 | N#Cc1ccc(CNc2ncc(C(=O)c3cc(F)cc(C(F)(F)F)c3)cn2)cc1 [Example 94, 4-[({5-[3-fluoro-5-(trifluoromethyl)benzoyl]pyrimidin-2-yl}amino)methyl] benzonitrile]
28 | 7.85 | 6.38 | CS(=O)(=O)c1cccc(C(=O)c2cnc(NCc3ccc(F)cc3)nc2)c1 [Example 96, {2-[(4-fluorobenzyl)amino]pyrimidin-5-yl}[3-(methylsulfonyl)phenyl]methanone]
29 | 5.31 | 6.06 | O=C(c1cnc(NCc2ccccc2)nc1)c1ccc2c(c1)OCCO2 [Example 97, [2-(benzylamino)pyrimidin-5-yl](2,3-dihydro-1,4-benzodioxin-6-yl)methanone]
